Here are results for twelve compounds from PubChem BioAssay (NCI).

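Growth conditions: 96-well plates. Treatment: test compound, 48 hours, 5 concentrations. Analysis: linear interpolation between bracketing concentrations; unreached endpoints set to highest concentration. The concentration for full growth arrest is given as TGI.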 Where a SMILES comes first, the peptide text is derived from it. [ ]: non-standard residue; d: D form. The star is where a group is joined. ξ: configuration not given here. ξPhe(4-NO2) = NC(Cc1ccc([N+](=O)[O-])cc1)C(=O)O; Boc = CC(C)(C)OC(=O)* A value given as a limit tells only on which side of the number the result lay.

Among the test systems are CAKI-1 renal; COLO 205 colon; HL-60(TB) leukemia; HOP-92 NSCLC; M14 melanoma; MDA-MB-435; NCI-H460 lung; SF-295 CNS; SNB-19 CNS.
Holding throughout (experiment): NCI anticancer screen, dose series, 48 h

On to `COC(=O)/C=C/c1cnc2c(c1)oc(=O)n2C`, for which the TGI with CAKI-1 renal, in the assay with COLO 205 colon, in the assay on HL-60(TB) leukemia, with HOP-92 NSCLC, in the assay with M14 melanoma and in the assay with MDA-MB-435 was > 100 µM in each case. Also, the TGI with NCI-H460 lung, in the assay on SF-295 CNS and in the assay on SNB-19 CNS was > 100 µM each time.

On to `Clc1nc(Nc2nc3ccccc3[nH]2)nc(Cl)c1-c1ccccc1`, for which the TGI in the assay on CAKI-1 renal was > 100 µM; with COLO 205 colon it was 51.3 µM; in the assay on HL-60(TB) leukemia it was > 100 µM; in the assay with HOP-92 NSCLC it was 35 µM; in the assay with M14 melanoma, 98 µM; in the assay with MDA-MB-435, > 100 µM. Moreover, the TGI in the assay on NCI-H460 lung is 28.7 µM; in the assay with SF-295 CNS, 46.8 µM; in the assay with SNB-19 CNS, > 100 µM.

In the case of `CCSc1nc(C)nc2c1sc1nc3ccccc3n12`, the TGI in the assay with CAKI-1 renal, with COLO 205 colon, in the assay with HL-60(TB) leukemia, in the assay on HOP-92 NSCLC, in the assay on M14 melanoma and in the assay with MDA-MB-435 was > 100 µM in each case. Moreover, the TGI with NCI-H460 lung, in the assay on SF-295 CNS and with SNB-19 CNS was > 100 µM each time.

As for `CN(/N=C/c1ccccc1C(=O)O)C1=NCCCCN1`, the TGI with CAKI-1 renal, with COLO 205 colon, in the assay on HL-60(TB) leukemia, with HOP-92 NSCLC, with M14 melanoma and with MDA-MB-435 was > 100 µM each time. Moreover, the TGI with NCI-H460 lung, in the assay with SF-295 CNS and in the assay on SNB-19 CNS was > 100 µM in each case.

For the compound `COc1cc(C(=O)N(C(=S)OC23CC4CC(CC(C4)C2)C3)c2ccccc2)cc(OC)c1OC`, the TGI in the assay on CAKI-1 renal is > 100 µM; in the assay with COLO 205 colon, 39 µM; with HL-60(TB) leukemia, 45.8 µM; in the assay with HOP-92 NSCLC, > 100 µM; in the assay with M14 melanoma, 39.7 µM; in the assay on MDA-MB-435, > 100 µM. Further, the TGI in the assay on NCI-H460 lung, in the assay with SF-295 CNS and in the assay with SNB-19 CNS was > 100 µM each time.

On to `NS(=O)(=O)c1nnc(NC(=O)/C=C/C(=O)O)s1`, for which the TGI in the assay with CAKI-1 renal, in the assay on COLO 205 colon, with HL-60(TB) leukemia, in the assay on HOP-92 NSCLC, with M14 melanoma and with MDA-MB-435 was > 100 µM each time. Further, the TGI in the assay on NCI-H460 lung, with SF-295 CNS and with SNB-19 CNS was > 100 µM each time.

On to `COc1ccc(Br)c(C=Nc2cccc3cc(OC)c(OC)cc23)c1`, for which the TGI with CAKI-1 renal was > 100 µM; in the assay on COLO 205 colon it was > 100 µM; in the assay with HL-60(TB) leukemia, 7.97 µM; with HOP-92 NSCLC it was 79.5 µM; in the assay on M14 melanoma, > 58.1 µM; in the assay with MDA-MB-435, 12.6 µM. Moreover, the TGI with NCI-H460 lung, with SF-295 CNS and with SNB-19 CNS was > 100 µM throughout.

Consider `N#CC1=C(S)N(C2OC(CO)C(O)C(O)C2O)C(c2ccccc2)=CC1c1cccs1` (configuration not stated), for which the TGI is 50.4 µM in the assay with CAKI-1 renal; 38.6 µM in the assay on COLO 205 colon; > 100 µM with HL-60(TB) leukemia; 68.8 µM in the assay with HOP-92 NSCLC; > 100 µM with M14 melanoma; 44.1 µM in the assay with MDA-MB-435. The TGI was 32.9 µM in the assay with NCI-H460 lung, 34.8 µM in the assay on SF-295 CNS and > 10 µM with SNB-19 CNS.

On to `COc1cc2c3c(c1OC)C(=O)C(=O)C1=C3N(CCC1)CC2`, for which the TGI was > 100 µM in the assay on CAKI-1 renal; 35.3 µM in the assay with COLO 205 colon; 70.4 µM with HL-60(TB) leukemia; 60.4 µM in the assay with HOP-92 NSCLC; 70 µM in the assay with M14 melanoma; 53.8 µM in the assay with MDA-MB-435. The TGI is 37.5 µM with NCI-H460 lung, 76.9 µM in the assay on SF-295 CNS and > 100 µM with SNB-19 CNS.

Turning to `CCNC(=O)CNC(=O)C(Cc1ccc([N+](=O)[O-])cc1)NC(=O)OC(C)(C)C` (configuration not stated) (Boc-[ξPhe(4-NO2)]-Gly-NHEt), the TGI in the assay on CAKI-1 renal, in the assay with COLO 205 colon, with HL-60(TB) leukemia, in the assay on HOP-92 NSCLC, with M14 melanoma and with MDA-MB-435 was > 100 µM in each case. In addition, the TGI in the assay on NCI-H460 lung, with SF-295 CNS and in the assay on SNB-19 CNS was > 100 µM in each case.

Take `COc1ccc2c(c1)OC1c3ccccc3OCC21` (configuration not stated): the TGI in the assay on CAKI-1 renal, with COLO 205 colon, in the assay with HL-60(TB) leukemia, in the assay on HOP-92 NSCLC, in the assay on M14 melanoma and in the assay on MDA-MB-435 was > 100 µM in each case. Also, the TGI with NCI-H460 lung, in the assay with SF-295 CNS and with SNB-19 CNS was > 100 µM each time.

With `S=C(S)N1CCN(c2ccccc2)CC1`, the TGI was > 100 µM with CAKI-1 renal; > 100 µM with COLO 205 colon; 64.4 µM in the assay on HL-60(TB) leukemia; > 100 µM in the assay with HOP-92 NSCLC; > 100 µM in the assay on M14 melanoma; > 100 µM with MDA-MB-435. The TGI in the assay with SF-295 CNS and with SNB-19 CNS was > 100 µM in each case.
